What was measured:
[1] = human gut metagenome, 24 h, 2 µM
[2] = human gut metagenome, 24 h, 2 µM; remark: listed apart in the source
[3] = (§1) The drug is tested on WLS-090 corresponding to human gut metagenome with ENA study accession number: PRJEB37062 and ENA sample accession number: ERS12561753 for biotransformation under anaerobic condition. The drug concentrations were measured over 9 timepoints collected between 0 and 24 hours of incubation by liquid-chromatography-coupled mass spectrometry (LC–MS); details: 2 µM
[4] = human gut metagenome, 24 h, 2 µM; remark: listed apart in the source
[5] = human gut metagenome, 24 h, 2 µM; remark: listed apart in the source
[6] = as §1, with “WLS-086” for “WLS-090”, “ERS12561752” for “ERS12561753”; details: 2 µM
[7] = as §1, with “Z-011” for “WLS-090”, “mouse” for “human”, “ERS12561811” for “ERS12561753”; details: 2 µM
[8] = as §1, with “WLS-039” for “WLS-090”, “ERS12561746” for “ERS12561753”; details: 2 µM
[9] = human gut metagenome, 24 h, 2 µM; remark: listed apart in the source
[10] = human gut metagenome, 24 h, 2 µM; remark: listed apart in the source
[11] = as §1, with “Z-003” for “WLS-090”, “pig” for “human”, “ERS12561803” for “ERS12561753”; details: 2 µM
[12] = as §1, with “WLS-077” for “WLS-090”, “ERS12561750” for “ERS12561753”; details: 2 µM
[13] = as §1, with “WLS-310” for “WLS-090”, “ERS12561785” for “ERS12561753”; details: 2 µM
[14] = human gut metagenome, 24 h, 2 µM; remark: listed apart in the source
[15] = human gut metagenome, 24 h, 2 µM; remark: listed apart in the source
[16] = human gut metagenome, 24 h, 2 µM; remark: listed apart in the source
[17] = as §1, with “Z-029” for “WLS-090”, “rat” for “human”, “ERS12561828” for “ERS12561753”; details: 2 µM
Note: call rule not given here.

Row | Bacterial Biotransformation [1] | Bacterial Biotransformation [2] | Bacterial Biotransformation [3] | Bacterial Biotransformation [4] | Bacterial Biotransformation [5] | Bacterial Biotransformation [6] | Bacterial Biotransformation [8] | Bacterial Biotransformation [9] | Bacterial Biotransformation [10] | Bacterial Biotransformation [11] | Bacterial Biotransformation [12] | Bacterial Biotransformation [13] | Bacterial Biotransformation [14] | Bacterial Biotransformation [15] | Bacterial Biotransformation [16] | Bacterial Biotransformation [17] | Compound | Bacterial Biotransformation [7]
1 | Compound NOT metabolized | Compound NOT metabolized | Compound metabolized | Compound metabolized | Compound NOT metabolized | Compound metabolized | Compound NOT metabolized | Compound NOT metabolized | Compound NOT metabolized |  | Compound NOT metabolized | Compound metabolized | Compound NOT metabolized | Compound metabolized | Compound metabolized |  | CN(C)CCc1c[nH]c2ccc(CS(=O)(=O)N3CCCC3)cc12 [ALMOTRIPTAN] | 
2 | Compound metabolized | Compound NOT metabolized | Compound metabolized | Compound metabolized | Compound metabolized | Compound metabolized | Compound metabolized | Compound NOT metabolized | Compound NOT metabolized |  | Compound metabolized | Compound metabolized | Compound metabolized | Compound metabolized | Compound metabolized |  | CCCCC(=O)O[C@]1(C(=O)CO)[C@@H](C)C[C@H]2[C@@H]3CCC4=CC(=O)C=C[C@]4(C)[C@@]3(F)[C@@H](O)C[C@@]21C [BETAMETHASONE VALERATE] | 
3 | Compound metabolized | Compound metabolized | Compound metabolized | Compound metabolized | Compound metabolized | Compound metabolized | Compound metabolized | Compound metabolized | Compound metabolized | Compound metabolized | Compound metabolized | Compound metabolized | Compound metabolized | Compound metabolized | Compound metabolized |  | CC(=O)Oc1ccc(C(c2ccc(OC(C)=O)cc2)c2ccccn2)cc1 [BISACODYL] | 
4 | Compound NOT metabolized | Compound metabolized | Compound metabolized | Compound metabolized | Compound metabolized | Compound metabolized | Compound metabolized | Compound NOT metabolized | Compound NOT metabolized |  | Compound NOT metabolized | Compound metabolized | Compound metabolized | Compound metabolized | Compound metabolized |  | Cc1nc(Nc2ncc(C(=O)Nc3c(C)cccc3Cl)s2)cc(N2CCN(CCO)CC2)n1 [DASATINIB ANHYDROUS] | 
5 | Compound NOT metabolized | Compound metabolized | Compound metabolized | Compound metabolized | Compound metabolized | Compound NOT metabolized | Compound NOT metabolized | Compound NOT metabolized | Compound NOT metabolized |  | Compound NOT metabolized | Compound metabolized | Compound metabolized | Compound NOT metabolized | Compound NOT metabolized |  | COCCCC/C(=N\OCCN)c1ccc(C(F)(F)F)cc1.O=C(O)/C=C\C(=O)O [FLUVOXAMINE MALEATE] | 
6 | Compound metabolized | Compound metabolized | Compound metabolized | Compound metabolized | Compound metabolized | Compound metabolized | Compound metabolized | Compound metabolized | Compound metabolized |  | Compound metabolized | Compound metabolized | Compound metabolized | Compound metabolized | Compound metabolized |  | CCOC(=O)C1=C(C)NC(C)=C(C(=O)OC)C1c1cccc([N+](=O)[O-])c1 (centres undefined) [NITRENDIPINE] | 
7 | Compound metabolized | Compound metabolized | Compound metabolized | Compound metabolized | Compound metabolized | Compound metabolized | Compound NOT metabolized | Compound NOT metabolized | Compound NOT metabolized |  | Compound NOT metabolized | Compound metabolized | Compound metabolized | Compound metabolized | Compound metabolized |  | N#Cc1ccc2c(c1)N(CCCN1CCC(O)CC1)c1ccccc1S2 [PERICIAZINE] | 
8 | Compound metabolized | Compound metabolized | Compound metabolized | Compound metabolized | Compound metabolized | Compound metabolized | Compound metabolized | Compound NOT metabolized | Compound NOT metabolized |  | Compound metabolized | Compound metabolized | Compound metabolized | Compound metabolized | Compound NOT metabolized |  | O=C([O-])C[C@H](O)C[C@H](O)/C=C/c1c(C2CC2)nc2ccccc2c1-c1ccc(F)cc1.O=C([O-])C[C@H](O)C[C@H](O)/C=C/c1c(C2CC2)nc2ccccc2c1-c1ccc(F)cc1.[Ca+2] [PITAVASTATIN CALCIUM] | 
9 | Compound NOT metabolized | Compound NOT metabolized | Compound NOT metabolized | Compound metabolized | Compound NOT metabolized | Compound metabolized | Compound NOT metabolized | Compound metabolized | Compound NOT metabolized | Compound NOT metabolized | Compound NOT metabolized | Compound metabolized |  | Compound metabolized | Compound NOT metabolized | Compound NOT metabolized | CNNCc1ccc(C(=O)NC(C)C)cc1 [PROCARBAZINE] | 

Row | Compound | Bacterial Biotransformation [1] | Bacterial Biotransformation [2] | Bacterial Biotransformation [3] | Bacterial Biotransformation [4] | Bacterial Biotransformation [5] | Bacterial Biotransformation [6] | Bacterial Biotransformation [8] | Bacterial Biotransformation [9] | Bacterial Biotransformation [10] | Bacterial Biotransformation [11] | Bacterial Biotransformation [12] | Bacterial Biotransformation [13] | Bacterial Biotransformation [14] | Bacterial Biotransformation [15] | Bacterial Biotransformation [16] | Bacterial Biotransformation [17] | Bacterial Biotransformation [7]
10 | N[C@@H](Cc1ccc(N(CCCl)CCCl)cc1)C(=O)O | Compound metabolized | Compound metabolized | Compound metabolized | Compound metabolized | Compound NOT metabolized | Compound metabolized | Compound metabolized | Compound NOT metabolized | Compound NOT metabolized | Compound metabolized | Compound metabolized |  |  |  |  |  | Compound metabolized
11 | CN1CCN(C2=Nc3ccccc3Oc3ccc(Cl)cc32)CC1.O=C(O)CCC(=O)O [LOXAPINE SUCCINATE] | Compound NOT metabolized | Compound NOT metabolized | Compound NOT metabolized | Compound NOT metabolized | Compound NOT metabolized | Compound NOT metabolized | Compound NOT metabolized | Compound NOT metabolized | Compound NOT metabolized |  | Compound NOT metabolized | Compound NOT metabolized | Compound NOT metabolized | Compound NOT metabolized | Compound NOT metabolized |  | 
